Columns and labels:
[1] = system: Leucine tRNA synthetase (hair follicle extract); assay: Hair follicle aminoacyl-tRNA synthetase inhibition, 14C leucine incorporation; type: biochemical; settings: 0.96 μmole/ml inhibitor (leucinamide: similar concentration); 37° C., 60 minutes
Description: Inhibition of hair follicle aminoacyl-tRNA synthetase was determined using a modification of the procedure described by Hampel et. al (Aminoacyl-tRNASynthetases from Cultured CHO Cells (1979) Methods in Enzymology, Vol. LIX, pp 229-234). A reaction mixture containing the following was used for each assay: 50 mM Tris (pH 7.4), 15 mM MgCl2, 0.5 mM EDTA (adjusted to pH 7), 5 mM ATP (adjusted to pH 7, 0.35 mM CTP, 20 μM ^14 C amino acid and tRNA (50 μg/ml). Leucine and serine tRNA synthetase were assayed with a pH 8.6 buffer and a MgCl2 concentration of 8 mM. The reaction mixture is mixed with the hair follicle extract so that the final assay volume is 100 μl. Typically, 90-95 μl of the reaction mixture was mixed with 5-10 μl of the hair follicles extract. The reaction was carried out at 37° C. for 60 minutes. The reaction was terminated by removing the reaction mixture and placing it on a piece of filter paper that had been soaked with 10% trichloroacetic acid. The filter paper was washed 3 times in 10% trichloroacetic acid and 3 times in 5% trichloroacetic acid. The filter paper was dried and the insoluble radioactivity, corresponding to the ^14 C-aminoacyl-tRNA, was counted in a scintillation counter.
The incorporation of the ^14 C amino acid varied from 178 dpm/mM to 3,093 dpm/mM in the assays of the amino acids mentioned above. […]

flank organ hair growth = assay: Golden Syrian hamster assay (flank organ hair mass after thirteen topical applications); type: in vivo
From the text: Male intact Golden Syrian hamsters are considered acceptable models for human beard hair growth in that they display oval shaped flank organs, one on each side, each about 8 mm. in major diameter, which grow thick black and coarse hair similar to human beard hair. These organs produce hair in response to androgens in the hamster. To evaluate the effectiveness of a composition including an aminoacyl-tRNA synthetase inhibitor, the flank organs of each of a group of hamsters are shaved. To one organ of each animal 10 μl. of vehicle alone once a day is applied, while to the other organ of each animal an equal amount of vehicle containing a aminoacyl-tRNA inhibitor is applied. After thirteen applications (one application per day for five days a week), the flank organs are shaved and the amount of recovered hair (hair mass) from each is weighed. Percent-reduction of hair growth is calculated by subtracting the hair mass (mg) value of the test compound treated side from the hair mass value of the vehicle treated side; the delta value obtained is then divided by the hair mass value of the vehicle treated side, and the resultant number is multiplied by 100.
The above-described assay will be referred to herein as the "Golden Syrian hamster" assay. Preferred compositions provide a reduction in hair growth of at least about 25%, more preferably at least about 50%, and most preferably at least about 60% when tested in the Golden Syrian hamster assay.

[2] = Table 1, dose 15%, vehicle B, pH 6.5
[3] = Table 2 dose response, dose 1%, pH 5.5, vehicle 90% H2O, 6% dipropylene glycol, 4% ethanol
[4] = Table 2 dose response, dose 5%, pH 6.5, vehicle 90% H2O, 6% dipropylene glycol, 4% ethanol
[5] = Table 2 dose response, dose 7.5%, pH 6.5, vehicle 90% H2O, 6% dipropylene glycol, 4% ethanol

`CC(C)CC(N)C(N)=O` (centres unmarked) [lucinamide] was tested. Which “inhibition of leucine incorporation” value [1] did it give?
Its value is 83%.

`CC(C)C[C@H](N)CO` [L-leucinol] was tested. Which “inhibition of leucine incorporation” value [1] did it give?
The value was 18%.

How did the “% Inhibition of hair growth” value (flank organ hair growth; [2]) turn out when `CSCCC(C)(N)C(=O)O` (racemic) [α-methyl-DL-methionine] was run?
The value was 31 ± 7%.

What about the “Treated (mg) hair mass” value (flank organ hair growth; [2]) of the same compound?
The value was 1.10 ± .15 mg.

Which results are given for `N[C@@H](CSC(c1ccccc1)(c1ccccc1)c1ccccc1)C(=O)O` [S-trityl-L-cysteine]?
% Inhibition of hair growth (flank organ hair growth; [3]): 35 ± 9%; Treated (mg) hair mass (flank organ hair growth; [3]): 0.88 ± .10 mg; % Inhibition of hair growth (flank organ hair growth; [4]): 56 ± 6%; Treated (mg) hair mass (flank organ hair growth; [4]): 0.90 ± .17 mg; % Inhibition of hair growth (flank organ hair growth; [5]): 80 ± 6%; Treated (mg) hair mass (flank organ hair growth; [5]): 0.35 ± .10 mg; Dose response of hair growth reduction (flank organ hair growth; increasing the concentration of the inhibitor in the composition): increased hair growth reduction

Reference: patent US5939458A, “Reduction of hair growth” (priority 1997, dated 1999)
